The compounds below were run on Poliovirus 1 (PV1) (assay: microbe, parasite or virus in culture). Conditions: Enterovirus C, read-out: EC50, replication of Poliovirus 1 (PV1).
Assay type: cell-based, Human enterovirus C

| Compound | EC50 |
| --- | --- |
| COc1ccc(OCc2ccc(COc3c(Cl)cccc3Cl)cc2)c(Cl)c1 [Compound V-073, V-073] | 26 ± 23 nM |
| CC(C)S(=O)(=O)n1c(N)nc2ccc(/C(=N/O)c3ccccc3)cc21 [Enviroxime] | 790 ± 130 nM |
| Cc1cc(CCCOc2c(C)cc(-c3noc(C(F)(F)F)n3)cc2C)on1 [Pleconaril] | > 300000 nM |
| CCOC(=O)/C=C/[C@H](C[C@@H]1CCNC1=O)NC(=O)[C@@H](CC(=O)[C@@H](NC(=O)c1cc(C)on1)C(C)C)Cc1ccc(F)cc1 [Rupintrivir] | 4500 ± 360 nM |

What follows are compounds tested on Enterovirus 71 (EV71) (assay: microbe, parasite or virus in culture). Conditions: Enterovirus A, EV71, read-out: EC50, replication of Enterovirus 71 (EV71).
Assay type: cell-based, Human enterovirus A

| Compound | EC50 |
| --- | --- |
| COc1ccc(OCc2ccc(COc3c(Cl)cccc3Cl)cc2)c(Cl)c1 [Compound V-073, V-073] | > 300000 nM |
| CC(C)S(=O)(=O)n1c(N)nc2ccc(/C(=N/O)c3ccccc3)cc21 [Enviroxime] | 450 ± 120 nM |
| Cc1cc(CCCOc2c(C)cc(-c3noc(C(F)(F)F)n3)cc2C)on1 [Pleconaril] | > 300000 nM |
| CCOC(=O)/C=C/[C@H](C[C@@H]1CCNC1=O)NC(=O)[C@@H](CC(=O)[C@@H](NC(=O)c1cc(C)on1)C(C)C)Cc1ccc(F)cc1 [Rupintrivir] | 900 ± 70 nM |
